In patent US20130115178A1, “TANNING ENHANCERS AND SELF-TANNING SUBSTANCES” (MERCK PATENT GESELLSCHAFT MIT BESCHRANKTER HAFTUNG, priority 2010, published 2013):
Values joined by “and” are separate entries in the source; they are usually repeats but may differ in a detail not shown here. Equal entries are not always repeated.

Tests used:
[1] = In-vitro investigation of DHA and DHA/glucuronolactone (Liquidskin model, L-a-b values); details: 37° C., pH 7
[2] = tested on: explants from the stomach tissue of a pale-skinned person (type); test: Ex-vivo study: chromametric colour measurement of skin explants; set-up: species or system human; key: change in the L*a*b* a value from D0; details: D5 vs D0; single explants; listed as P2
[3] = tested on: B16V mouse melanoma cells; test: B16 V mouse melanoma cell test (melanin concentration); type: cell-based; details: for Melanin concentration %: relative to blank DMSO + α-MSH = 100%
Procedure: Description of the performance of the B16 V mouse melanoma cell test:
B16V mouse melanoma cells (manufacturer: DSMZ; Article No,: ACC370) in RPMI medium (Invitrogen, Article No.: 31870), to which 10% of FBS (foetal bovine serum, Invitrogen, Article No: 10499044), 2 mM L-glutamine (Invitrogen, Article No: 25030) and 1 mM sodium pyruvate (Invitrogen, Article No:11360) had additionally been added (modified RPMI medium), are transferred into a culture bottle and incubated at 37° C. and 5% CO2 for 72 h. The medium is separated off, and the cells are washed with 10 ml of D-PBS (Invitrogen, Article No. 14190) and subsequently filtered off with suction. 1 ml of HyQtase cell detachment solution (Hyclone, Article No. SV30030.01) is added to the cells. The bottle is swirled a number of times, and the HyQtase cell detachment solution is subsequently removed by suction. The cells are then incubated in the incubator at 37° C. and 5% CO2 for 5 min. The cells are taken up in the modified RPMI medium (Invitrogen, Article No.: 31870), and the cell count is determined. To this end, the cells are stained with Tryptan Blue and counted in a Neubauer chamber. The cells are subsequently sown out again in the modified RPMI medium in a defined cell count of 80,000 cells per well (6-well clear plate, TCT, PS (Nunc)).
The plate is subsequently incubated at 37° C. and 5% CO2 for 24 h, the medium is then removed. […]
After the final incubation period, the medium is removed by suction, and the cells are washed with 1000 μl of D-PBS (Invitrogen, Article No. 14190). […] The cell count is subsequently determined. To this end, the cells are stained with Tryptan Blue and counted in a Neubauer chamber. […] 200 μl are then pipetted as quadruple determination (per cup) into a 96-well plate (VWR, Article No. 4100636981), and the absorption at a wavelength of 405 nm is determined. […] The content of melanin can be determined in this way by means of a calibration line.
The other values were determined relative to the blank sample with dimethyl sulfoxide (DMSO) and a-MSH, whose measurement was set at 100%

[4] = tested on: explants from the stomach tissue of a pale-skinned person (type); test: Ex-vivo study: chromametric colour measurement of skin explants; set-up: species or system human; key to b / a: CIE L*a*b* colour coordinates, Minolta CR-300 chromameter, D65
Procedure: 12 explants from the stomach tissue of a pale-skinned person (type) having an average diameter of 10 mm are prepared (reference: P831-AB49).
The explants are kept in a BEM medium (B10-EC's explants medium) at 37° C. in a moist atmosphere comprising 5% of CO2.
The following samples are tested: (in each case 3 explants), where the solutions of the corresponding substances used comprise 90% of water and 10% of ethanol.
Glucuronolactone is employed in the bicyclic form.
2 μl of the respective sample are added to the explants and distributed for the first time (D0), 1 day later (D1), 2 days later (D2), 3 days later (D3) and 4 days later (D4). The colour of the explants is determined chromametrically. The measurements are carried out on addition (D0), on day 1 (D1), on day 5 (D5) and on day 11 (D11).
The colour measurements are carried out using a Minolta CR-300 Chroma-meter, and the L, a and b values are read off correspondingly on the instrument.
The following parameters are set:
A colour area is present here which is viewed at a viewing angle of 2 degrees. This viewing angle is used as standard in the chromametric measurement. • Irradiation source D65, corresponding to daylight • Region of the measurement: 3 mm • Parameters used: L*a*b*
The sample is placed on the bearing rail with the epidermis facing downwards. The irradiation is carried out from the underside through the area indicated (3 mm).
In the colorimetric determinations <<L a b>>, the L value determines the contrast of the skin. If the L value drops, the skin appears darker.
Δa after one day is calculated as follows: […]

[5] = D0 (on addition), single explants, n=3, listed as P2
[6] = D1, single explants, n=3, listed as P2
[7] = D5, single explants, n=3, listed as P2
[8] = D11, single explants, n=3, listed as P2

O=C(CO)CO [DHA, 1,3-dihydroxyacetone]
L ([1]; after 6 hours): 86.1
a ([1]; after 6 hours): 13.4
b ([1]; after 6 hours): 39.9
L ([1]; after 24 hours): 61.3
a ([1]; after 24 hours): 31.7
b ([1]; after 24 hours): 75.0
L ([1]; after one hour): 99.4
a ([1]; after one hour): 0.4
b ([1]; after one hour): 1.3

O=C[C@H](O)[C@H]1OC(=O)[C@@H](O)[C@H]1O [Glucuronolactone]
Δa [2]: 0.25 and 0.22 and 0.26
Melanin concentration % ([3]; 10 mM + α-MSH (10^−8 M)): 46.9%
Melanin concentration % ([3]; 10 mM, without α-MSH): 56.7%
melanin production ([3]; cell culture tests with B16V mouse melanoma cells): reduce melanin production
L [4, 5]: 64.07 and 62.49 and 62.34
b [4, 5]: 17.1 and 17.34 and 16.15
L [4, 6]: 65.12 and 64.59 and 62.71
b [4, 6]: 17.81 and 17.14 and 16.29
L [4, 7]: 62.73 and 63.62 and 63.56
b [4, 7]: 16.51 and 16.88 and 15.95
L [4, 8]: 64.22 and 65.7 and 62.69
a [4, 8]: 1.87 and 2.44 and 2.65
b [4, 8]: 14.34 and 15.04 and 15.57
skin colour in comparison with the untreated sample ([4]; explants, glucuronolactone 1%): darkening of the skin
